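Tested at 5 concentrations; 48 h exposure; 96-well plates; endpoints linearly interpolated, else capped at highest concentration. GI50: concentration for 50% inhibition of growth. Definition used: TGI = concentration required for complete inhibition of growth.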
Key:
Assay in all cases: NCI anticancer screen, dose series, 48 h
[1] = tested on: HT29 colon
[2] = tested on: NCI-H23 lung
[3] = tested on: MCF7 breast
[4] = tested on: BT-549 breast
[5] = tested on: MDA-MB-435
[6] = tested on: TK-10 renal
[7] = tested on: CCRF-CEM leukemia
[8] = tested on: U251 CNS
[9] = tested on: RPMI-8226 leukemia
[10] = tested on: A498 renal
[11] = tested on: SNB-75 CNS
[12] = tested on: M14 melanoma
[13] = tested on: MALME-3M melanoma
[14] = tested on: UACC-62 melanoma
[15] = tested on: HS 578T breast
[16] = tested on: RXF 393 renal
[17] = tested on: ACHN renal
[18] = tested on: OVCAR-5 ovarian
[19] = tested on: HOP-62 NSCLC
[20] = tested on: HCT-116 colon
[21] = tested on: SK-MEL-2 melanoma
[22] = tested on: OVCAR-8 ovarian
[23] = tested on: NCI/ADR-RES ovarian
[24] = tested on: IGROV1 ovarian
[25] = tested on: K-562 leukemia
[26] = tested on: SF-539 CNS
[27] = tested on: SNB-19 CNS
[28] = tested on: SF-268 CNS
[29] = tested on: LOX IMVI melanoma
[30] = tested on: OVCAR-4 ovarian
[31] = tested on: HCC-2998 colon
[32] = tested on: SF-295 CNS
[33] = tested on: SK-OV-3 ovarian
[34] = tested on: KM12 colon
[35] = tested on: SK-MEL-5 melanoma
[36] = tested on: NCI-H460 lung
[37] = tested on: T-47D breast
[38] = tested on: COLO 205 colon
[39] = tested on: SR leukemia
[40] = tested on: SW-620 colon
[41] = tested on: PC-3 prostate
[42] = tested on: SN12C renal
[43] = tested on: NCI-H226 lung
[44] = tested on: UACC-257 melanoma
[45] = tested on: DU-145 prostate
[46] = tested on: A549 NSCLC
[47] = tested on: SK-MEL-28 melanoma
[48] = tested on: NCI-H522 lung
[49] = tested on: MOLT-4 leukemia
[50] = tested on: MDA-MB-231 breast
[51] = tested on: UO-31 renal
[52] = tested on: HL-60(TB) leukemia
[53] = tested on: CAKI-1 renal
[54] = tested on: 786-0 renal
[55] = tested on: HCT-15 colon
[56] = tested on: HOP-92 NSCLC
[57] = tested on: EKVX NSCLC
[58] = tested on: OVCAR-3 ovarian

In the case of `O=S(=O)(NCCNc1nccc(-c2c(-c3ccc(F)cc3)nc3sccn23)n1)c1ccc(O)cc1`, the GI50 [1] is reported as 2.09 µM, the TGI [1] is reported as 37.4 µM and the GI50 [2] is reported as 4.96 µM. For the same compound, the TGI [2] was 28.1 µM, the GI50 [3] was 0.476 µM and the TGI [3] was 14.4 µM. It also gave a GI50 [4] of 3.14 µM, a TGI [4] of 19.1 µM and a GI50 [5] of 1.07 µM. It also gave a TGI [5] of 14.8 µM, a GI50 [6] of 4.81 µM and a TGI [6] of 26.3 µM. The GI50 [7] was 2 µM, the TGI [7] was 29.8 µM and the GI50 [8] was 1.36 µM. The TGI [8] was 23.4 µM, the GI50 [9] was 4.52 µM and the TGI [9] was 29.3 µM. For the same compound, the GI50 [10] was 8.8 µM, the TGI [10] was 23.2 µM and the GI50 [11] was 1.68 µM. It also gave a TGI [11] of 13.1 µM, a GI50 [12] of 3.36 µM and a TGI [12] of 18.1 µM. For the same compound, the GI50 [13] was 3.92 µM, the TGI [13] was 21.5 µM and the GI50 [14] was 2.35 µM. For the same compound, the TGI [14] was 18.8 µM, the GI50 [15] was 6.48 µM and the TGI [15] was 42.7 µM. For the same compound, the GI50 [16] was 4.27 µM, the TGI [16] was 24.8 µM and the GI50 [17] was 2.03 µM. For the same compound, the TGI [17] was 45.6 µM, the GI50 [18] was 11.8 µM and the TGI [18] was greater than 100 µM. It also gave a GI50 [19] of 14.3 µM, a TGI [19] of 85.6 µM and a GI50 [20] of 1.43 µM. It also gave a TGI [20] of 22.1 µM, a GI50 [21] of 4.18 µM and a TGI [21] of 17.3 µM. For the same compound, the GI50 [22] was 1.98 µM, the TGI [22] was 22.5 µM and the GI50 [23] was 19.5 µM. It also gave a TGI [23] greater than 100 µM, a GI50 [24] of 1.7 µM and a TGI [24] of 13.7 µM. It also gave a GI50 [25] of 2.18 µM, a TGI [25] greater than 100 µM and a GI50 [26] of 11.3 µM. The TGI [26] was 30.7 µM, the GI50 [27] was 12.5 µM and the TGI [27] was greater than 100 µM. For the same compound, the GI50 [28] was 3.99 µM, the TGI [28] was 56.2 µM and the GI50 [29] was 1.88 µM. For the same compound, the TGI [29] was 49.6 µM, the GI50 [30] was 3.52 µM and the TGI [30] was 21.6 µM. The GI50 [31] was 15.5 µM, the TGI [31] was 51.1 µM and the GI50 [32] was 10.4 µM. For the same compound, the TGI [32] was 34.6 µM, the GI50 [33] was 9.17 µM and the TGI [33] was 73 µM. For the same compound, the GI50 [34] was 2.05 µM, the TGI [34] was 14.2 µM and the GI50 [35] was 1.39 µM. The TGI [35] was 10.7 µM, the GI50 [36] was 0.845 µM and the TGI [36] was 27.8 µM. It also gave a GI50 [37] of 2.36 µM, a TGI [37] of 19.2 µM and a GI50 [38] of 2 µM. It also gave a TGI [38] of 14.8 µM, a GI50 [39] of 1.82 µM and a TGI [39] of 21.5 µM. For the same compound, the GI50 [40] was 4.47 µM, the TGI [40] was 41.8 µM and the GI50 [41] was 4.51 µM. It also gave a TGI [41] of 37.6 µM, a GI50 [42] of 3.9 µM and a TGI [42] of 76.6 µM. The GI50 [43] was 6.91 µM, the TGI [43] was 21.9 µM and the GI50 [44] was 5.84 µM. It also gave a TGI [44] of 34.7 µM, a GI50 [45] of 3.17 µM and a TGI [45] of 28.8 µM. It also gave a GI50 [46] of 3.28 µM, a TGI [46] of 43.1 µM and a GI50 [47] of 4.4 µM. It also gave a TGI [47] of 37.8 µM, a GI50 [48] of 3.51 µM and a TGI [48] of 19.2 µM. It also gave a GI50 [49] of 3.21 µM, a TGI [49] of 15.7 µM and a GI50 [50] of 7.77 µM. For the same compound, the TGI [50] was 70.1 µM, the GI50 [51] was 2.39 µM and the TGI [51] was 16.7 µM. The GI50 [52] was 4.93 µM, the TGI [52] was 30.5 µM and the GI50 [53] was 4.07 µM. The TGI [53] was 48.3 µM, the GI50 [54] was 4.26 µM and the TGI [54] was 39.7 µM. For the same compound, the GI50 [55] was 5 µM, the TGI [55] was greater than 100 µM and the GI50 [56] was 1.31 µM. It also gave a TGI [56] of 9.07 µM.

`CCOC(=O)c1c(-c2ccccc2)n2c(=O)cc(C)c3c(O)c(O)cc1c32` showed a GI50 [57] of 8.73 µM, a TGI [57] of 24.3 µM and a GI50 [1] of 7.18 µM. It also gave a TGI [1] of 84 µM, a GI50 [2] of 6.06 µM and a TGI [2] of 37.5 µM. For the same compound, the GI50 [3] was 3.28 µM, the TGI [3] was 13.4 µM and the GI50 [4] was 7.08 µM. The TGI [4] was 24.1 µM, the GI50 [5] was 15.7 µM and the TGI [5] was greater than 100 µM. For the same compound, the GI50 [6] was 22.7 µM, the TGI [6] was greater than 100 µM and the GI50 [7] was 1.59 µM. For the same compound, the TGI [7] was 13.9 µM, the GI50 [8] was 4.98 µM and the TGI [8] was 22.7 µM. For the same compound, the GI50 [9] was 3.98 µM, the TGI [9] was 17.9 µM and the GI50 [10] was 13 µM. For the same compound, the TGI [10] was 37.6 µM, the GI50 [11] was 8.95 µM and the TGI [11] was 88.1 µM. For the same compound, the GI50 [12] was 5.84 µM, the TGI [12] was 20.2 µM and the GI50 [13] was 13.7 µM. For the same compound, the TGI [13] was 33.6 µM, the GI50 [14] was 7.94 µM and the TGI [14] was 20.9 µM. The GI50 [15] was 14.7 µM, the TGI [15] was 56.6 µM and the GI50 [16] was 11.9 µM. The TGI [16] was 30.9 µM, the GI50 [17] was 5.94 µM and the TGI [17] was 43.1 µM. It also gave a GI50 [18] of 22.5 µM, a TGI [18] of 46.7 µM and a GI50 [19] of 11.1 µM. It also gave a TGI [19] of 54.5 µM, a GI50 [20] of 2.8 µM and a TGI [20] of 11.9 µM. For the same compound, the GI50 [21] was 4.09 µM, the TGI [21] was 41.3 µM and the GI50 [22] was 4.23 µM. It also gave a TGI [22] of 22.1 µM, a GI50 [23] of 2.47 µM and a TGI [23] greater than 100 µM. It also gave a GI50 [24] of 4.99 µM, a TGI [24] of 19.2 µM and a GI50 [25] of 6.93 µM. The TGI [25] was 22.7 µM, the GI50 [26] was 4.56 µM and the TGI [26] was 25.1 µM. The GI50 [27] was 11.4 µM, the TGI [27] was 35.7 µM and the GI50 [28] was 3.35 µM. The TGI [28] was 20.2 µM, the GI50 [29] was 4.96 µM and the TGI [29] was 22.8 µM. The GI50 [30] was 2.46 µM, the TGI [30] was 11.4 µM and the GI50 [58] was 2.38 µM. The TGI [58] was 17 µM, the GI50 [32] was 6.75 µM and the TGI [32] was greater than 100 µM. For the same compound, the GI50 [33] was 16 µM, the TGI [33] was greater than 100 µM and the GI50 [34] was 6.74 µM. It also gave a TGI [34] of 38.7 µM, a GI50 [35] of 4.44 µM and a TGI [35] of 16.9 µM. It also gave a GI50 [36] of 2.6 µM, a TGI [36] of 25.3 µM and a GI50 [37] of 5.43 µM. For the same compound, the TGI [37] was greater than 100 µM, the GI50 [38] was 11 µM and the TGI [38] was 28.2 µM. For the same compound, the GI50 [39] was 3.59 µM, the TGI [39] was 17.5 µM and the GI50 [40] was 4.74 µM. The TGI [40] was 18.5 µM, the GI50 [41] was 6.94 µM and the TGI [41] was 26 µM. It also gave a GI50 [42] of 10.8 µM, a TGI [42] of 35.1 µM and a GI50 [43] of 11.4 µM. It also gave a TGI [43] of 42.1 µM, a GI50 [44] of 6.38 µM and a TGI [44] of 28.7 µM. It also gave a GI50 [45] of 10.5 µM, a TGI [45] of 23.9 µM and a GI50 [46] of 5.46 µM. For the same compound, the TGI [46] was 24.6 µM, the GI50 [47] was 12.7 µM and the TGI [47] was 29.3 µM. It also gave a GI50 [48] of 3.25 µM, a TGI [48] of 11.6 µM and a GI50 [49] of 3.81 µM. For the same compound, the TGI [49] was 17.7 µM, the GI50 [50] was 6.64 µM and the TGI [50] was 27.7 µM. For the same compound, the GI50 [51] was 8.39 µM, the TGI [51] was 38.7 µM and the GI50 [52] was 3.34 µM. For the same compound, the TGI [52] was 10.8 µM, the GI50 [53] was 9.84 µM and the TGI [53] was 36.2 µM. The GI50 [54] was 11.7 µM, the TGI [54] was 53.7 µM and the GI50 [55] was 1.66 µM. It also gave a TGI [55] of 19.5 µM, a GI50 [56] of 10.5 µM and a TGI [56] of 42.8 µM.
